In publication PMC10095550, “Design, Synthesis and Biological Evaluation of 6-(Imidazo[1,2-a]pyridin-6-yl)quinazoline Derivatives as Anticancer Agents via PI3Kα Inhibition” (International Journal of Molecular Sciences, 2023):

Biological target: T1, PI3Kα (Homo sapiens, UniProt P42336)
T1 construct: gene PIK3CA
Test: ADP-Glo Max kinase assay
Type: biochemical

T1 sequence (P42336 whole entry): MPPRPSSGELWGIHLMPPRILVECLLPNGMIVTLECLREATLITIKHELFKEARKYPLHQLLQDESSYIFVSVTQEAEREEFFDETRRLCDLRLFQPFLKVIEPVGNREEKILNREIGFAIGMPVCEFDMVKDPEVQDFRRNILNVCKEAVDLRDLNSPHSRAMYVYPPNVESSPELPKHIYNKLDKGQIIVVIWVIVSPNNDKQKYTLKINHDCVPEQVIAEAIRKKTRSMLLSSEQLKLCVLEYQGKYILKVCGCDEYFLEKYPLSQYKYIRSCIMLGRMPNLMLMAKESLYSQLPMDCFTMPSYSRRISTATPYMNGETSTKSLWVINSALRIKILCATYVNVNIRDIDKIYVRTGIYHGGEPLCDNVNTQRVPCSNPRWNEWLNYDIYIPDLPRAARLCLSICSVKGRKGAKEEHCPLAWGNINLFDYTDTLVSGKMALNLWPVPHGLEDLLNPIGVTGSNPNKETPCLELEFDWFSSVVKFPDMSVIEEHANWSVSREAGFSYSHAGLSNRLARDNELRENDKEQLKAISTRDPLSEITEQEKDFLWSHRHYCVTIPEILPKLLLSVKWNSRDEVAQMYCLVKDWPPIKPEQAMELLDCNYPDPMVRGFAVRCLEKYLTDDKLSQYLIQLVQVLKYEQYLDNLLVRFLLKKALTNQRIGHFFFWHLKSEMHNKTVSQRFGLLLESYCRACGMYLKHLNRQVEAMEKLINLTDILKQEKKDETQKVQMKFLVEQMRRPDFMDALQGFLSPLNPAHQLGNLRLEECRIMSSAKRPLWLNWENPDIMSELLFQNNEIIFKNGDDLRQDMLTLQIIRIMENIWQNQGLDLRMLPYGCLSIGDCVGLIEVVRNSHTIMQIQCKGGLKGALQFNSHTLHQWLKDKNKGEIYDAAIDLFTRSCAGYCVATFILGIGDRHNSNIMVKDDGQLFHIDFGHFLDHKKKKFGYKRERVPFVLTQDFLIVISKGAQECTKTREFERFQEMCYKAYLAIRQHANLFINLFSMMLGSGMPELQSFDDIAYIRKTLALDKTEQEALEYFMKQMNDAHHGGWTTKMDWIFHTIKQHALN

c1ccc(-c2cn3cc(-c4ccc5ncnc(NCC6CCOCC6)c5c4)ccc3n2)cc1 [13k, 6-(2-phenylimidazo[1,2-a]pyridin-6-yl)-N-((tetrahydro-2H-pyran-4-yl)methyl)quinazolin-4-amine]
IC50: 1.94 ± 0.66 nM
